Measured values: US20240025899A1, “TRIHETEROCYCLIC DERIVATIVE, AND PHARMACEUTICAL COMPOSITION AND APPLICATION THEREOF” (SHANGHAI DE NOVO PHARMATECH CO., LTD., priority 2020, published 2024)
Counter-ions that a name gives are not always drawn.

Tests used:
hERG channel = hERG channel (Homo sapiens (Human), UniProt Q12809); assay: Cardiac safety evaluation, hERG study (QPatch whole-cell recording); format: cell-based; conditions: CHO cell line expressing hERG channel
Procedure: In this experiment, a CHO cell line stably transfected with hERG cDNA and expressing p15 hERG channel was used. Cells were incubated at 37° C. in a humidified incubator containing 5% CO2 in medium (Ham's F12, 10% v/v FBS, 100 μg/mL hygromycin B, 100 μg/mL geneticin) (from Invitrogen). Cells were grown under the above conditions and reached approximately 80-90% of the confluency. Cells were treated with Detachin (Genlantis) for 3 to 5 minutes. The medium was titrated 15 to 20 times at 37° C., and then the cells were resuspended in CHO-S-SFM II medium (serum-free medium, Invitrogen) buffered with HEPES (25 mM). Cells used for QPatch studies must meet the following criteria: Most suspension cells should be single and isolated under microscopy; viability should be greater than 95%; cell density in the final suspension should be in the range of 3 to 8×10^6 cells/mL before application to the QPatch stir chamber. Cells meeting the above conditions can be used for recordings within 4 hours of harvest.
Test compounds were made into 10 mM DMSO stock solutions. Six doses (30, 10, 3, 1, 0.3 and 0.1 μM) were selected to obtain the fitted curves and IC50. The final DMSO concentration was 0.1% or less. The IC50 of the positive control cisapride was assessed at doses of 3, 1, 0.3, 0.1, 0.03 and 0.01 μM, respectively. Composition of […] for electrophysiological recordings: CaCl2 2 mM, MgCl2 1 mM, KCl 4 mM, NaCl 145 mM, Glucose 10 mM, HEPES 10 mM, pH 7.4 (NaOH), composition of external solution: CaCl2 […], MgCl2 1.75 mM, KCl 120 mM, HEPES 10 mM, EGTA 5 mM, Na-ATP 4 mM, pH 7.25 (KOH) (all reagents used were from sigma).
Whole-cell recordings were performed using automated QPatch (Sophion Biosciences, Denmark). Cells were recorded for 120 s to assess current stability. The above voltages were then applied to the cells every 15 s throughout the procedure. […]
The data were analyzed with Sophion Assay software (determination software V5.0), Microsoft Excel and Graphpad Prism 5.0 to obtain IC50 of compounds.

[1] = system: OCI-LY19 human B-cell lymphoma; assay: In vivo drug efficacy, OCI-LY19 human B-cell lymphoma mouse subcutaneous xenograft tumor model
Procedure: Cell culture: Human B-cell lymphoma OCI-LY19 cells were maintained as a monolayer in MEM-α medium containing 10% fetal bovine serum in a constant temperature incubator at 37° C. with 5% CO2. Tumor cells were subcultured twice a week. Cells in exponential growth phase were harvested and counted for inoculation.
Experimental animals: BALB/c nude mice, 6-8 weeks old, 19-22 g, purchased from Beijing Vital River Laboratory Animal Technology Co., Ltd.
For Vehicle, positive control (AZD6738, CAS number: 1352226-88-0) and compound 2, a total of 6 experimental groups were set up, as shown in Table 5 below:
Experimental method: The OCI-LY19 cell line (3.0×10^6 cells/mouse) was inoculated subcutaneously on the right back of the experimental mouse, and the inoculation volume of each mouse was 0.1 mL, and the growth of tumors was observed regularly, and until the tumor grew to about 100 mm^3, the mice were randomly divided into groups according to the tumor size and body weight, and administered according to the administration plan shown in Table 5, and the mouse body weight and tumor size were measured twice a week during the whole experiment.
tumor volume (mm^3)=0.5×(tumor long diameter×tumor short diameter^2). Tumor size calculation formula: […]

[2] = Group 3, 5 mg/kg p.o. once a day
[3] = Group 4, 10 mg/kg p.o. once a day
[4] = Group 5, 10 mg/kg p.o. once a day × 4 days on, 3 days off
[5] = Group 6, 20 mg/kg p.o. once a day × 4 days on, 3 days off

Sequence of hERG channel (Q12809 whole entry): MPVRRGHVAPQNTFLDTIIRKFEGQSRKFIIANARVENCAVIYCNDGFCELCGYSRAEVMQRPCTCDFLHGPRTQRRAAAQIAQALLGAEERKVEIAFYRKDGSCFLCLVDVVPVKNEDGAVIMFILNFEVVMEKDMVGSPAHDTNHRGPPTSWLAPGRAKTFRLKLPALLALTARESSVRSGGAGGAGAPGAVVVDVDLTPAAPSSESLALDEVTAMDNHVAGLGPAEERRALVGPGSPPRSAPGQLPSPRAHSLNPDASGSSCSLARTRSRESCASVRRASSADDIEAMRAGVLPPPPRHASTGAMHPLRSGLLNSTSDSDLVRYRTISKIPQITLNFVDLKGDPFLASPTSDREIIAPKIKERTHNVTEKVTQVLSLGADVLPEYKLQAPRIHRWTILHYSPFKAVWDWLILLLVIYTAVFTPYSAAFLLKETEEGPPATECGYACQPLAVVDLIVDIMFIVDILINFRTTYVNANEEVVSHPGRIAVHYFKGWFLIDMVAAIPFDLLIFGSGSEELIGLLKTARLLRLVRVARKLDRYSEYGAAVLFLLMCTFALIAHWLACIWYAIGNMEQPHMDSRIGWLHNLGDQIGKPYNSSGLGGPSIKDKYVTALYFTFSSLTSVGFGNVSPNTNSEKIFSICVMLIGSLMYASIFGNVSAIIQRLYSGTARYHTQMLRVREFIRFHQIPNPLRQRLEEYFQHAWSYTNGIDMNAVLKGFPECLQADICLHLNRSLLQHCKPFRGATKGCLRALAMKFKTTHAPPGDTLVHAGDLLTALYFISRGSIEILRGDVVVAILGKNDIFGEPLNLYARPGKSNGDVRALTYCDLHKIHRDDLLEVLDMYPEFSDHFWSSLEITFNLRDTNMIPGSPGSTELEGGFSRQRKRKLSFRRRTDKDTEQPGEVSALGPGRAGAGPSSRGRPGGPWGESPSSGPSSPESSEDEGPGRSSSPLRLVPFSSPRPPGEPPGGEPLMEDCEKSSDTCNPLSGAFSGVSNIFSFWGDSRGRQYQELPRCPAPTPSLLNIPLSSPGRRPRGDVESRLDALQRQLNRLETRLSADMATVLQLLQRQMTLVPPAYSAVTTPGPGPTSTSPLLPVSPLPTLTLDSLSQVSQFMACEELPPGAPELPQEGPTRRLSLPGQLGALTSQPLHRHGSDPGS

## C[C@@H]1COCCN1c1nc2c(cnn2-c2cc[nH]n2)c2c1ccn2S(C)(=O)=O [Compound 1, (R)-3-methyl-4-(1-(methylsulfonyl)-6-(1H-pyrazol-3-yl)-1,6-dihydropyrazolo[3,4-b]pyrrolo[2,3-d]pyridin-4-yl)morpholine trifluoroacetate]
hERG channel
  IC50: > 30 µM

## C[C@@H]1COCCN1c1nc2c(cnn2-c2cc[nH]n2)c2c1CCN2S(C)(=O)=O [Compound 2, (R)-3-methyl-4-(1-(methylsulfonyl)-6-(1H-pyrazol-3-yl)-1,2,3,6-tetrahydropyrazolo[3,4-b]pyrrolo[2,3-d]pyridin-4-yl)morpholine trifluoroacetate]
hERG channel
  IC50: > 30 µM
[1]; [2]
  T/C (%): 17.9%
  TGI (%): 86.0%
  Tumor volume (10 days, mm^3): 109.41 ± 4.35 mm^3
  Tumor volume (24 days, mm^3): 424.51 ± 77.26 mm^3
[1]; [3]
  T/C (%): 8.5%
  TGI (%): 95.9%
  Tumor volume (10 days, mm^3): 109.00 ± 4.19 mm^3
  Tumor volume (24 days, mm^3): 202.09 ± 44.85 mm^3
[1]; [4]
  T/C (%): 15.9%
  TGI (%): 88.2%
  Tumor volume (10 days, mm^3): 109.20 ± 3.96 mm^3
  Tumor volume (24 days, mm^3): 375.56 ± 92.96 mm^3
[1]; [5]
  T/C (%): 7.9%
  TGI (%): 96.5%
  Tumor volume (10 days, mm^3): 109.24 ± 4.22 mm^3
  Tumor volume (24 days, mm^3): 187.91 ± 27.01 mm^3
